In article PMC9974488, “Probing coenzyme A homeostasis with semisynthetic biosensors” (Nature Chemical Biology, 2022):

Legend:
[1] = biological target: T1, pantothenate kinase (ecPanK) (Escherichia coli, UniProt P0A6I3); test: biochemical; design: fluorescence polarization competition against 50 nM TMR-TAZ with 20 uM ecPanK, half-maximal c50
T1 construct: gene coaA; ecPanK WT, N-terminal Strep-tag, C-terminal Hisx10
T1 sequence (P0A6I3 1-316): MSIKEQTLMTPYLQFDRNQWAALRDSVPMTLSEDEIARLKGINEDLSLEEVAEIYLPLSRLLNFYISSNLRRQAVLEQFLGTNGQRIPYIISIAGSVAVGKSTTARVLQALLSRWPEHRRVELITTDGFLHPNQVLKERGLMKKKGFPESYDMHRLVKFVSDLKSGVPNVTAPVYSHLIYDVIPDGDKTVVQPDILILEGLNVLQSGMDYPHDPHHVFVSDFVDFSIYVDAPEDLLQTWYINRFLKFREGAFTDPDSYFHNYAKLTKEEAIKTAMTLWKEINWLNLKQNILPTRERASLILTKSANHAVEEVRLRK
Method: The binding affinity (c50) of different ecPanKs for CoA and AcCoA were determined by a fluorescence polarization competition assay against TMR-TAZ. 50 nM TMR-TAZ and 20 μM ecPanKs, except ecPanK^D127A,F252Y,L277W (100 μM), were titrated against CoA or AcCoA concentrations ranging from 64 nM to 5 mM in PBS supplemented with 0.5 mg ml^−1 BSA and 50 mM HEPES. Assays were performed in non-binding black 96-well plates with a final volume of 50 μl with excitation at 520 nm (bandwidth 20 nm) and emission 600 nm (bandwidth 20 nm). Obtained FP values were averaged and fitted to equation (4) to estimate the c50 values using OriginPro 2021.4 FP=FP0+FPs−FP0/1+c50/[L] Where FP0 is the fluorescence polarization of the fluorophore with ecPanKs in the absence of CoA or AcCoA (bound fluorophore), FPs is the fluorescence polarization of the fluorophore in the presence of CoA or AcCoA (free fluorophore) c50 is the half-maximal effective concentration, and [L] is the concentration of CoA or AcCoA. […] Representative in-gel fluorescence scan after SDS-PAGE (n = 3 independent experiments) of Halo-SiR labeled sensor proteins, Lane 1: protein marker, lane 2: CoA-Snifit^V97T, lane 3: CoA-Snifit^G41, lane 4: CoA-Snifit^G41S, lane 5: CoA-Snifit^G41N. c. […] Fluorescence polarization responses (FP, mean ± s.d., n = 3 independent replicates) of 50 nM TMR-TAZ as a function of ecPanK^WT concentration in PBS. e. […]

[2] = biological target: T1, pantothenate kinase (ecPanK); test: fluorescence polarization competition against TMR-TAZ; type: binding
[3] = biological target: T2, pantothenate kinase (ecPanK) (Escherichia coli, UniProt P0A6I3, D127A/F252Y/L277W); test: fluorescence polarization; type: binding
T2 construct: gene coaA; ecPanK D127A,F252Y,L277W

[4] = biological target: T1, pantothenate kinase (ecPanK); test: fluorescence polarization, purified protein titrated against […] TMR-TAZ; type: binding

| Compound | IC50 [1] [µM] | fluorescence polarization competition against TMR-TAZ [2] | Kd [3] [µM] | Kd [4] [nM] |
| --- | --- | --- | --- | --- |
| CC(=O)SCCNC(=O)CCNC(=O)[C@H](O)C(C)(C)COP(=O)(O)OP(=O)(O)OC[C@H]1O[C@@H](n2cnc3c(N)ncnc32)[C@H](O)[C@@H]1OP(=O)(O)O [acetyl-CoA] | 1420 ± 315 |  |  |  |
| CC(C)(COP(=O)(O)OP(=O)(O)OC[C@H]1O[C@@H](n2cnc3c(N)ncnc32)[C@H](O)[C@@H]1OP(=O)(O)O)[C@@H](O)C(=O)NCCC(=O)NCCS [Coenzyme A] | 214 ± 19.2 | CoA competes with TMR-TAZ for binding to ecPanK (Extended Data Fig. 1e) |  |  |
| CC(NC(=O)c1ccccc1C(F)(F)F)c1nnc(SCc2ccc(F)cc2)n1Cc1ccc(COC(=O)NCCOCCOCCNC(=O)c2ccc(C(=O)O)c(-c3c4ccc(=[N+](C)C)cc-4oc4cc(N(C)C)ccc34)c2)nc1 (centres unmarked) [compound 1, TMR-TAZ] |  |  | 21.6 ± 3.7 | 1200 ± 200 |
